pIC50, pKi: −log10 of the molar value.
How the values were obtained:
[1] = molecular target: T1, 5-HT6 receptor (Homo sapiens (Human), UniProt P50406); experiment: Antagonistic activity towards 5-HT6 receptors: inhibition of serotonin-induced intracellular cAMP (LANCE cAMP) in HEK 293 cells; assay type: cell-based; conditions: for inhibition at 10 µM: HEK293, read-out: % inhibition of 5-HT6 receptors (I, %), 10 μM solutions, serotonin-induced cAMP; for pIC50: serotonin-stimulated intracellular cAMP production, read-out: IC50 in the setting of functional assay
Protocol: Determination of antagonistic activity of compounds of general formula 1 towards 5-HT6 receptors. Compounds of general formula 1 were tested for their ability to prevent 5-HT6 receptor activation by serotonin. HEK 293 cells (cells of human embryo's kidney) with artificially expressed 5-HT6 receptor, activation of which by serotonin leads to increasing the concentration of intracellular cAMP were used. The content of intracellular cAMP was determined using reagent kit LANCE cAMP (PerkinElmer) according to the method described by the manufacturer of the kit [http://las.perkinelmer.com/content/Manuals/MAN_LANCEcAMP384KitUser.pdf].
Effectiveness of compounds was estimated by their ability to reduce the content of intracellular cAMP induced by serotonin.

[2] = molecular target: T1, 5-HT6 receptor; experiment: Competitive radioligand binding ([3H] Lysergic acid diethylamide) to serotonin 5-HT6 receptors, HeLa cell membranes; conditions: 1.5 nM [3H] Lysergic acid diethylamide, 120 min at 37° C.; for pIC50: read-out: IC50 in the setting of competitive binding; for pKi: read-out: Ki in the setting of competitive binding
Protocol: Determination of activity of serotonin 5-HT6 receptor antagonists of the general formula 1 in the setting of competitive binding to serotonin 5-HT6 receptors.
Screening of disclosed compounds for their potential ability to interact with serotonin 5-HT6 receptor was carried out by method of radioligand binding. For this purpose membrane species were prepared from expressing recombinant human 5-HT6 receptor HeLa cells by means of their homogenization in glass homogenizer with subsequent separation of plasmatic membranes from cell nucli, mitochondria's and cell wreckages by differential centrifugation. […] Mol. Pharmacol. 43:320-327, 1993]. […] After incubation the samples were filtered in vacuo on glass-microfiber filters G/F (Millipor, USA), filters were washed three times with cold solution of medium and radioactivity was measured by scintillation counter MicroBeta 340 (PerkinElmer, USA). […] Binding of tested compounds to the receptor was determined by their ability to displace the radioligand and expressed in percent of displacement. The percent of displacement was calculated according to the following equation:
[formula] wherein: TA—was overall radioactivity in the presence of radioligand only, CA—was radioactivity in the presence of radioligand and tested compound and NA—was radioactivity in the presence of radioligand and Serotonin (5 μM).

T1 sequence (P50406 whole entry): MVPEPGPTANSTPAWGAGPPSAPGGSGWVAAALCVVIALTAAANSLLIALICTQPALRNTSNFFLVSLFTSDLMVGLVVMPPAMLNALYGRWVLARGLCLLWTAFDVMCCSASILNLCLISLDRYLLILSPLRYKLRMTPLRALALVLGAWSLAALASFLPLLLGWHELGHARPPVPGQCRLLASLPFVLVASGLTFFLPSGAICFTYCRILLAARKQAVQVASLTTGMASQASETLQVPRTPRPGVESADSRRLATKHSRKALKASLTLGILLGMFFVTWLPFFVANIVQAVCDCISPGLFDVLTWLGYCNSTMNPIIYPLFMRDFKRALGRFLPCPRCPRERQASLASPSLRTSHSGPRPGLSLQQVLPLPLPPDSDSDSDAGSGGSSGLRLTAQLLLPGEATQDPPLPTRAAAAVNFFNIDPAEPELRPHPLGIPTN

inhibition at 10 µM [1] [%] | pIC50 [2] | pKi [2] | pIC50 [1] | Compound
88 | – | – | – | CSc1nn2c(-c3ccccc3)cc(C)nc2c1S(=O)(=O)c1ccccc1 [1(1)]
77 | – | – | – | Cc1cc(C)n2nc(C)c(S(=O)(=O)c3ccncc3)c2n1 [1(2)]
78 | – | – | – | Cc1cc(C)n2nc(C)c(S(=O)(=O)c3cccnc3)c2n1 [1(3)]
69 | – | – | – | Cc1cc(C)n2nc(C)c(S(=O)(=O)c3cccs3)c2n1 [1(4)]
68 | – | – | – | CSc1nn2c(C)cc(-c3ccccc3)nc2c1S(=O)(=O)c1ccccc1 [1(5)]
78 | 6.29 | 6.63 | < 6.00 | Cc1cc(C)n2ncc(S(=O)(=O)c3ccccc3)c2n1 [1.1(1), 5,7-dimethyl-3-(phenylsulfonyl)pyrazolo[1,5-a]pyrimidine]
82 | 6.32 | 6.65 | – | Cc1cc(C)n2nc(OCCO)c(S(=O)(=O)c3ccccc3)c2n1 [1.1(2)]
73 | – | – | – | Cc1cc(C)n2nc(OCCO)c(S(=O)(=O)c3ccc(F)cc3)c2n1 [1.1(4)]
104 | 8.34 | 8.67 | 7.52 | CSc1nn2c(C)cc(C)nc2c1S(=O)(=O)c1ccccc1 [1.1(5), 5,7-dimethyl-2-methylsulfanyl-3-(phenylsulfonyl)pyrazolo[1,5-a]pyrimidine]
104 | – | – | 7.30 | CCSc1nn2c(C)cc(C)nc2c1S(=O)(=O)c1ccccc1 [1.1(6), 5,7-dimethyl-2-ethylsulfanyl-3-(phenylsulfonyl)pyrazolo[1,5-a]pyrimidine]
101 | > 8.00 | – | 6.95 | CSc1nn2c(C)cc(C)nc2c1S(=O)(=O)c1ccc(F)cc1 [1.1(7), 5,7-dimethyl-2-methylsulfanyl-3-(4-fluorophenylsulfonyl)pyrazolo[1,5-a]pyrimidine]
102 | – | – | – | CCSc1nn2c(C)cc(C)nc2c1S(=O)(=O)c1ccc(F)cc1 [1.1(8), 5,7-dimethyl-2-ethylsulfanyl-3-(4-fluorophenylsulfonyl)pyrazolo[1,5-a]pyrimidine]
100 | – | – | 7.60 | CSc1nn2c(C)cc(C)nc2c1S(=O)(=O)c1cccc(F)c1 [1.1(9), 5,7-dimethyl-2-methylsulfanyl-3-(3-fluorophenylsulfonyl)pyrazolo[1,5-a]pyrimidine]
103 | – | – | – | CCSc1nn2c(C)cc(C)nc2c1S(=O)(=O)c1cccc(F)c1 [1.1(10), 5,7-dimethyl-2-ethylsulfanyl-3-(3-fluorophenylsulfonyl)pyrazolo[1,5-a]pyrimidine]
101 | – | – | 7.70 | CSc1nn2c(C)cc(C)nc2c1S(=O)(=O)c1cccc(Cl)c1 [1.1(11), 5,7-dimethyl-2-methylsulfanyl-3-(3-chlorophenylsulfonyl)pyrazolo[1,5-a]pyrimidine]
101 | – | – | – | CCSc1nn2c(C)cc(C)nc2c1S(=O)(=O)c1cccc(Cl)c1 [1.1(12), 5,7-dimethyl-2-ethylsulfanyl-3-(3-chlorophenylsulfonyl)pyrazolo[1,5-a]pyrimidine]
86 | 6.83 | 7.16 | – | Cc1cc(C)n2nc(C)c(S(=O)(=O)c3ccccc3)c2n1 [1.1(13)]
88 | – | – | – | Cc1cc(C)n2nc(C)c(S(=O)(=O)c3cccc(F)c3)c2n1 [1.1(14)]
99 | – | – | 7.10 | CCSc1nn2c(C)cc(C)nc2c1S(=O)(=O)c1ccc(C)cc1 [1.1(15)]
94 | – | – | 6.64 | CSc1nn2c(C)cc(C)nc2c1S(=O)(=O)c1ccc(Cl)cc1 [1.1(16)]
65.4 | – | – | 6.36 | COc1ccc(S(=O)(=O)c2c(SC)nn3c(C)cc(C)nc23)cc1 [1.1(17)]
61 | – | – | 6.49 | CCSc1nn2c(C)cc(C)nc2c1S(=O)(=O)c1ccc(OC)cc1 [1.1(18)]
87 | – | – | – | CSc1nn2c(C)cc(C)nc2c1S(=O)(=O)c1ccc(N(C)C)cc1 [1.1(19)]
100 | – | – | – | CSc1nn2c(C)cc(C)nc2c1S(=O)(=O)c1ccc(F)c(Cl)c1 [1.1(20)]
78 | – | – | – | Cc1cc(C)n2nc(C)c(S(=O)(=O)c3ccc(F)cc3)c2n1 [1.1(21)]
66 | – | – | – | Cc1cc(C)n2nc(OCCN(C)C)c(S(=O)(=O)c3ccccc3)c2n1 [1.1(22)]
